# From patent US12612389B2, “Benzofuran-based N-acylhydrazone derivative and pharmaceutical composition comprising same” (KOREA RESEARCH INSTITUTE OF BIOSCIENCE AND BIOTECHNOLOGY, priority 2019, dated 2026)
# Assays:
# [1] = Solubility of the compound in the toxicity-test solvent; assay type: physicochemical; details: N′,N′-dimethylacetamide/Kolliphor/2-hydroxypropyl-β-cyclodextrin (10% in distilled water)=40:10:50; thicker solutions precipitated
# Experimental: (§1) 100 mg/kg of the compound of Example 4 was dissolved in a solvent (N′,N′-dimethylacetamide/Kolliphor/2-hydroxypropyl-β-cyclodextrin (10% concentration of distilled water solution)=40:10:50). When the concentration became thicker than that, the reaction solution immediately precipitated. The solution in which the compound of Example 4 was dissolved from 12.5 mg/kg to 100 mg/kg was injected into the peritoneal cavity of mice 10 times […] in a volume of 100 μL (see FIG. 8A). All animals survived to the final day, and no particular problems were seen by visual observation (see Table 13 and FIG. 8A).
# [2] = Mouse toxicity test (repeated intraperitoneal injection); assay type: in vivo, ICR mice; details: for Survival rate (%): n = 3, i.p., 10 injections
# Experimental: All animal experiments and procedures were performed in accordance with ethical standards under the approval of the Institutional Animal Care and Use Committee (IACUC) of the Korea Research Institute of Bioscience and Biotechnology (KRIBB). ICR mice were supplied by Daehan Biolink Co., Ltd (Korea). All mice were housed in sterile animal isolation facilities. All in vivo experiments were performed using 6-8 week old mice.
# Acute toxicity test of the compound of Example 4 was performed at the Laboratory Animal Resource Center of the Korea Research Institute of Bioscience and Biotechnology. ICR mice (6-8 weeks old) were acclimatized for up to 10 days before the experiment, and then 3 mice were injected with the drugs. The Example compound was mixed with a solvent and injected intraperitoneally, and after drug treatment, clinical symptoms were observed twice within 24 hours, and additional drug treatment was performed up to 10 times as scheduled. The mice were weighed 5 times as scheduled.
# as §1
# [3] = system: NCI-H1299; assay: Anti-proliferative activity in other cancer cell lines (MTT); assay type: cell-based; details: Homo sapiens, 96 h, Lung, 4 days
# Experimental: (§2) HeLa cells (American Type Culture Collection: ATCC, USA), a human cervical cancer cell line, were seeded in a 96-well plate at 3×10^3 cells/well, and the cells were then treated with compounds of Examples or Comparative Example according to the present invention and grown for 2 days. Then, MTT (3-(4,5-dimethylthiazol-2-yl)-2,5-diphenyltetrazolium bromide) reagent was added at 10 μL/well. After 2 hours, absorbance was measured at “OD 450” and statistical values were obtained using Prism™6 program. The data shown in Table below are mean values of results obtained by repeating the analysis twice.
# (§3) Specifically, various cancer cell lines were cultured in a microtiter plate (1-3×10^3 cells/well), treated with the compound of Example 4 according to the present invention, and cultured for 4 days. Cytotoxicity was tested by MTT assay in the same manner as in Experimental Example 1-1, and IC50 was obtained by a log-dose response curve. The data shown in Table below are mean values of results obtained by repeating the analysis three times.
# [4] = system: A549; assay: as above; assay type: cell-based; details: Homo sapiens, 96 h, A549 (line stands under Liver), 4 days
# Experimental: as §2, §3
# [5] = system: RPMI-8226; assay: as above; assay type: cell-based; details: Homo sapiens, 96 h, Marrow (leukemia), 4 days
# Experimental: as §2, §3
# [6] = system: HCC1954; assay: as above; assay type: cell-based; details: Homo sapiens, 96 h, Breast, 4 days
# Experimental: as §2, §3
# [7] = system: SNB75; assay: as above; assay type: cell-based; details: Homo sapiens, SNB-75, 96 h, CNS, 4 days
# Experimental: as §2, §3
# [8] = system: A498; assay: as above; assay type: cell-based; details: Homo sapiens, 96 h, Kidney, 4 days
# Experimental: as §2, §3
# [9] = system: SK-N-MC; assay: as above; assay type: cell-based; details: Homo sapiens, 96 h, Brain, 4 days
# Experimental: as §2, §3
# [10] = system: U373MG; assay: as above; assay type: cell-based; details: Homo sapiens, U373 MG, 96 h, Brain, 4 days
# Experimental: as §2, §3
# [11] = system: NCI-H460; assay: as above; assay type: cell-based; details: Homo sapiens, 96 h, Lung, 4 days
# Experimental: as §2, §3
# [12] = system: HCT 116; assay: as above; assay type: cell-based; details: Homo sapiens, 96 h, Colon, 4 days
# Experimental: as §2, §3
# [13] = system: NCI-H226; assay: as above; assay type: cell-based; details: Homo sapiens, 96 h, Lung, 4 days
# Experimental: as §2, §3
# [14] = system: K562; assay: as above; assay type: cell-based; details: Homo sapiens, 96 h, Marrow (leukemia), 4 days
# Experimental: as §2, §3
# [15] = system: SK-MEL 5; assay: as above; assay type: cell-based; details: Homo sapiens, 96 h, Skin, 4 days
# Experimental: as §2, §3
# [16] = system: Colo 205; assay: as above; assay type: cell-based; details: Homo sapiens, 96 h, Colon, 4 days
# Experimental: as §2, §3
# [17] = system: A172; assay: as above; assay type: cell-based; details: Homo sapiens, A 172, 96 h, Brain, 4 days
# Experimental: as §2, §3
# [18] = system: Hep3B; assay: as above; assay type: cell-based; details: Homo sapiens, 96 h, Liver, 4 days
# Experimental: as §2, §3
# [19] = system: CCRF-CEM; assay: as above; assay type: cell-based; details: Homo sapiens, 96 h, Peripheral blood, 4 days
# Experimental: as §2, §3
# [20] = system: HeLa CCL2; assay: as above; assay type: cell-based; details: Homo sapiens, 96 h, Cervix, 4 days
# Experimental: as §2, §3
# [21] = system: HCT-15; assay: as above; assay type: cell-based; details: Homo sapiens, 96 h, Colon, 4 days
# Experimental: as §2, §3
structure (smiles),measurement,setting,value
"CCOCCn1c(Cl)c(/C=N/NC(=O)c2cc3cc(C)ccc3o2)c2ccccc21 [Example 4, (E)-N′-[(2-chloro-1-(2-ethoxyethyl)-1H-indol-3-yl]methylene}-5-methylbenzofuran-2-carbohydrazide]",highest concentration dissolved without precipitation,[1],100 mg/kg
same,Survival rate (%),[2]; 12.5 mg/kg,100%
same,Survival rate (%),[2]; 25 mg/kg,100%
same,Survival rate (%),[2]; 50 mg/kg,100%
same,Survival rate (%),[2]; 100 mg/kg,100%
same,toxicity on dissection (size and morphology of each organ),[2]; intraperitoneally 10 times at 100 mg/kg,did not induce serious toxicity
same,IC50,[3],560 ± 150 nM
same,IC50,[4],630 ± 120 nM
same,IC50,[5],520 ± 130 nM
same,IC50,[6],410 ± 50 nM
same,IC50,[7],390 ± 30 nM
same,IC50,[8],170 ± 8 nM
same,IC50,[9],980 ± 110 nM
same,IC50,[10],360 ± 10 nM
same,IC50,[11],500 ± 90 nM
same,IC50,[12],450 ± 220 nM
same,IC50,[13],420 ± 60 nM
same,IC50,[14],470 ± 12 nM
same,IC50,[15],460 ± 140 nM
same,IC50,[16],360 ± 490 nM
same,IC50,[17],790 ± 90 nM
same,IC50,[18],190 ± 50 nM
same,IC50,[19],340 ± 20 nM
same,IC50,[20],180 ± 4 nM
same,IC50,[21],280 ± 70 nM
